# Values quoted from earlier work, collected in patent US20150283090A1, “USE OF SILICON OXIDE-BASED MATERIAL FOR THE MODIFIED RELEASE OF BIOLOGICALLY ACTIVE AGENTS” (MERCK PATENT GMBH, priority 2012, published 2015).
# Like-named read-outs stand apart in the source and are kept apart here.
# Key:
# [1] = C1 silylation of MCM-41
# [2] = MCM-48 and LP-la3d, pore sizes 3.6 and 5.7 nm, modified with C8 and C18 hydrocarbon chains
# [3] = silica hybrid gels with methyl or propyl functionalization
smiles,measurement,setting,value
C[C@H](CS)C(=O)N1CCC[C@H]1C(=O)O [Captopril],release rate,[1],decrease of release rate of Captopril with increasing degree of C1 silylation
CC(C)Cc1ccc(C(C)C(=O)O)cc1 (centres unmarked) [ibuprofen],delivery rates,[2],decrease of delivery rates when the surface of the material is modified
OCCN(CCO)c1nc(N2CCCCC2)c2nc(N(CCO)CCO)nc(N3CCCCC3)c2n1 [persantin],drug release,[3],inhibition of drug release with an increasing number of methyl or propyl functionalization
CN[C@H](CC(C)C)C(=O)N[C@H]1C(=O)N[C@@H](CC(N)=O)C(=O)N[C@H]2C(=O)N[C@H]3C(=O)N[C@H](C(=O)N[C@H](C(=O)O)c4cc(O)cc(O)c4-c4cc3ccc4O)[C@H](O)c3ccc(c(Cl)c3)Oc3cc2cc(c3O[C@@H]2O[C@H](CO)[C@@H](O)[C@H](O)[C@H]2O[C@H]2C[C@](C)(N)[C@H](O)[C@H](C)O2)Oc2ccc(cc2Cl)[C@H]1O [vancomycin],release kinetics of vancomycin from SBA-15,after functionalizing with octylmethoxysilane (C8),0.068 min-½
same,release kinetics of vancomycin from SBA-15,non-functionalized material,0.890 min-½
